For this experiment, the target named is Mu-type opioid receptor (Bos taurus, UniProt P79350). As to the kind of experiment: Compound was tested for Inhibition of [3H]DAMGO (0.25 nM) binding to mu receptor from bovine striatal membranes.

Data on four compounds can be found in ChEMBL document CHEMBL1153675, “Synthesis and opioid binding properties of 2-chloroacrylamido derivatives of 7,8-dihydromorphinans” (Bioorg Med Chem Lett, 1996).

Sequence of Mu-type opioid receptor (P79350 whole entry): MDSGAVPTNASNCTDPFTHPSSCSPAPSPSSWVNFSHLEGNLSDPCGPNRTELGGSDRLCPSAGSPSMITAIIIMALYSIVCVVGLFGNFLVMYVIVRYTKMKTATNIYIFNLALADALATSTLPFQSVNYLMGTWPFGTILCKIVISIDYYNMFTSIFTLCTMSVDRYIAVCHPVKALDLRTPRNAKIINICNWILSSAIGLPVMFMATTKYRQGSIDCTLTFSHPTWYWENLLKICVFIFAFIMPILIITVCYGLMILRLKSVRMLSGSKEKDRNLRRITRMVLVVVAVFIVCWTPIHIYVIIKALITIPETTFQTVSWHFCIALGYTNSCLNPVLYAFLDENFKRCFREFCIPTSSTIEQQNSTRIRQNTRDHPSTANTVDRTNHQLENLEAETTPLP

On to `C=C(Cl)C(=O)N[C@@]12CCC(=O)[C@@H]3Oc4c(O)ccc5c4C31CCN(CC1CC1)C2C5` (some centres undefined), for which the IC50 amounted to 23.5 nM.

Turning to `C=C(Cl)C(=O)N[C@@]12CCC(=O)[C@@H]3Oc4c(O)ccc5c4C31CCN(C)C2C5` (some centres undefined), the half-maximal inhibitory concentration (IC50) came out at 5.8 nM.

`C=C(Cl)C(=O)N[C@@H]1CCC2C3Cc4ccc(O)c5c4C2(CCN3C)[C@H]1O5` (some centres undefined) gave an IC50 of 0.56 nM.

Take `C=C(Cl)C(=O)N[C@@H]1CCC2C3Cc4ccc(O)c5c4C2(CCN3CC2CC2)[C@H]1O5` (some centres undefined): the half-inhibitory concentration (IC50) is 0.21 nM.
